Experimental data: patent US6395711B1, “Macrolides with antitumor activity” (priority 1997, dated 2002)
In brackets after ≈: the same amount, converted by molar mass. Entries after “also recorded” stand apart in the source; their conditions may differ. Read-outs that look alike come from different tables or passages of the source.

Legend:
[1] = system: P-388 (suspension culture of a lymphoid neoplasm from DBA/2 mouse); test: In vitro antitumor activity, P-388 cells; assay type: cell-based; conditions: for IC50: Mus musculus, P388, 72 h, read-out: IC50 P-388
Text: (§1) The antitumor activity has been deteced in vitro by culturing the tumor cells following the methodology described by Bergeron, et al.(2), and by Schroeder, et al. (6). Activity against several human tumors as leukaemia, colon carcinoma, NSC lung carcinoma, melanoma, and the like has been observed.
(§2) Biological activity: the antitumor cells employed have been P-388 (suspension culture of a lymphoid neoplasm from DBA/2 mouse), A-549 (monolayer culture of a human macrocytic lung carcinoma, HT-29 (monolayer culture of a human colon carcinoma), and MEL-28 (monolayer culture of a human melanoma), and the other indicated cell lines.
(§3) P-388 cells were seeded into 16 mm wells at 1×10^4 cells per well in 1 ml aliquots of MEM 5FCS containing the indicated concentration of drug. A separate set of cultures without drug were seeded as control of growth to ensure that cells remained in exponential phase of growth. All determinations were carried out duplicated. After three days of incubation at 37° in 10% CO2 atmosphere with 98% humidity, the wells were stained with 0.1% Crystal Violet. The IC50 was calculated by comparing the growth in wells with drug with the growth in control wells without the drug.
(§4) In Table 5 are presented the activity expressed as IC50 in mcg/ml

[2] = system: A-549 (monolayer culture of a human macrocytic lung carcinoma); test: In vitro antitumor activity, A-549 cells; assay type: cell-based
Text: as §1, §2, §3, §4

[3] = system: HT-29 (monolayer culture of a human colon carcinoma); test: In vitro antitumor activity, HT-29 cells; assay type: cell-based
Text: as §1, §2, §3, §4

[4] = system: MEL-28 (monolayer culture of a human melanoma); test: In vitro antitumor activity, MEL-28 cells; assay type: cell-based
Text: as §1, §2, §3, §4

[5] = system: CV1; test: In vitro activity, CV1 cells; assay type: cell-based; conditions: Cercopithecidae, CV-1
Text: as §1, §2, §3, §4

[6] = system: several mammalian cancer cell lines; test: In vitro antitumor activity, several mammalian cancer cell lines; assay type: cell-based
Text: as §1

[7] = system: P388MDR; test: In vitro antitumor activity, P388MDR cells; assay type: cell-based, murine
Text: as §1, §2, §3, §4

[8] = three days of incubation, Crystal Violet

SMILES | IC50 P-388 [1, 8] [µg/mL] | IC50 P388MDR [7] [µg/mL] | IC50 A-549 [2] [µg/mL] | IC50 HT-29 [3] [µg/mL] | IC50 MEL-28 [4] [µg/mL] | further results
CCCC1(O)C(O)C(C)C/C=C/C=C/C(CC(C)O)CCC2OC3(CCC(C)C(C(C)C(O)CC)O3)C(C)C(OC(=O)/C=C/C(C)C(O)C(C)C(O)C(O)C(O)C(O)C1O)C2C (centres unmarked) [IB-96212B] | – | – | – | – | – | IC50 [1, 8]: 0.001 µg/mL (≈ 0.00113 µM); IC50 ([2]; Homo sapiens, A549; read-out: IC50 A-549): 1 µg/mL (≈ 1.13 µM); IC50 ([3]; Homo sapiens, HT-29; read-out: IC50 HT-29): 1.2 µg/mL (≈ 1.36 µM); IC50 ([4]; Homo sapiens, SK-MEL-28; read-out: IC50 MEL-28): 1 µg/mL (≈ 1.13 µM); IC50 [5]: 0.001 µg/mL (≈ 0.00113 µM); antitumor activity against several mammalian cancer cell lines (in words) [6]: activity comparable to the parent IB-96212; also recorded: good antitumor actvity
COc1cccc2c1C(=O)c1c(O)c3c(c(O)c1C2=O)C[C@@](O)(C(=O)CO)C[C@@H]3O[C@H]1C[C@H](N)[C@H](O)[C@H](C)O1 [adriamicin] | 0.02 (≈ 0.0368 µM) | 1 (≈ 1.84 µM) | 0.002 (≈ 0.00368 µM) | 0.05 (≈ 0.092 µM) | 0.02 (≈ 0.0368 µM) | –
N.N.[Cl][Pt][Cl] [cis-platin] | 2.5 | 2.5 | 2.5 | 5 | 2.5 | –
COc1cc([C@@H]2c3cc4c(cc3[C@@H](O[C@@H]3O[C@@H]5CO[C@@H](C)O[C@H]5[C@H](O)[C@H]3O)[C@H]3COC(=O)[C@H]23)OCO4)cc(OC)c1O [etopoxide] | 0.1 (≈ 0.17 µM) | 10 (≈ 17 µM) | 0.1 (≈ 0.17 µM) | 1 (≈ 1.7 µM) | 0.5 (≈ 0.85 µM) | –
CC(=O)O[C@H]1C(=O)[C@@]2(C)[C@H]([C@H](OC(=O)c3ccccc3)[C@]3(O)C[C@H](OC(=O)[C@H](O)[C@@H](NC(=O)c4ccccc4)c4ccccc4)C(C)=C1C3(C)C)[C@]1(OC(C)=O)CO[C@@H]1C[C@@H]2O [taxol] | – | – | – | – | – | IC50 [1]: 0.2 µg/mL (≈ 0.234 µM); IC50 ([7]; Mus musculus): > 2 µg/mL; IC50 ([2]; Homo sapiens, A549, read-out: IC50 A-549): 0.002 µg/mL (≈ 0.00234 µM); IC50 ([3]; Homo sapiens, HT-29, read-out: IC50 HT-29): 0.002 µg/mL (≈ 0.00234 µM); IC50 ([4]; Homo sapiens, SK-MEL-28, read-out: IC50 MEL-28): 0.002 µg/mL (≈ 0.00234 µM)
